Like-named read-outs stand apart in the source and are kept apart here. * marks the point of attachment. Cbz = O=C(OCc1ccccc1)*; CH2F = FC*
Experiments:
[1] = test system: normal murine granulocyte/macrophage progenitors (mCFU-GM); test: Surviving fraction after 45 min exposure, in vitro clonal assay; format: cell-based; conditions: 10 μg/ml
Protocol: (§1) Cytotoxic Se(0)-protein conjugates were generated by exposing alpha-medium supplemented with fetal bovine serum (10%) and selenomerocyanine photosensitizer MC54 (26 μM) to cool white fluorescent light (fluence rate: 27 W/m^2) for 60 min. Wild-type L1210 leukemia cells, melphalan-resistant mutant L1210/L-PAM1 cells, or normal murine granulocyte/macrophage progenitors (mCFU-GM) (10^6/ml) were suspended either in cytotoxic conjugates or in alpha-medium supplemented with 4-HC (10 μg/ml) and incubated for 45 min at 37° C. Treatment conditions were selected to achieve a similar recovery of normal murine hematopoietic progenitor cells (mCFU-GM). Cells were washed free of excess conjugates or drug, and surviving fractions were determined by in vitro clonal assay.

[2] = test system: Wild-type L1210 leukemia cells; test: as above; format: cell-based, murine; conditions: 10 μg/ml
Protocol: as §1

[3] = test system: melphalan-resistant mutant L1210/L-PAM1 cells; test: as above; format: cell-based, murine; conditions: 10 μg/ml
Protocol: as §1

L1210 leukemia cells = test: Cytotoxic activity of conjugates formed by dye photoproducts and serum (lipo)proteins, in vitro clonal assay; format: cell-based, murine
Protocol: The mixtures were exposed to white light (27 W/m^2) for 60 min as deescribed above. […] To assess cytotoxic activity, cytotoxic conjugates were made isotonic by the addition of an appropriate volume of double-concentrated alpha-medium and incubated with L1210 leukemia cells for 60 min at 37° C. The surviving fraction of in vitro clonogenic leukemia cells was determined by in vitro clonal assay as described in Sieber, F. et al., 1984, which is incorporated by reference in its entirety. […] The fluorescence yield of fluorescent photoproduct-albumin conjugates was determined with a Hitachi F4500 fluorescence spectrophotometer. All samples were serially diluted with buffer to rule out artifacts due to self-quenching. In vitro clonal assays of L1210 murine leukemia cells were used to assess cytotoxic activity.

tumor cells = test: Interactions of conjugates with ionizing radiation and standard chemotherapeutic agents; conditions: 30 min pretreatment, nontoxic 3 mg/ml
Text: Alternatively, 5 or 6 doses of conjugates were used in combination with one or two doses of a drug. Depending on the combination, the two agents were applied either sequentially or simultaneously. […] For each combination, two or more target cells were selected from the following panel of tumor cell lines: L1210 and HL-60/ADR leukemia cells, PC3 and DU145 prostate cancer cells, H69 lung cancer cells, Mm5MT, MDA-MB-23 1, MDA-MB-435 and C1271 breast cancer cells, and SK-ES-1 Ewing's sarcoma cells.

[4] = test system: PC3 prostate cancer cells; test: Cytotoxicity of conjugates in combination; format: cell-based
[5] = test system: DU145 prostate cancer cells; test: Cytotoxicity of conjugates alone or in combination; format: cell-based, human
Protocol: The study was conducted with DU145 human prostate cancer cells. The protein source was fetal bovine serum, and the data points are means of 4 plates±SE.

[6] = test system: MDA-MB-435 breast cancer cells; test: Cytotoxicity of conjugates in combination; format: cell-based, human; conditions: 0.5 mM; 20 hours
[7] = test system: caspase activity in L1210 leukemia cells; test: Caspase Detection Kit (FITC-VAD-FMK) with specific peptide inhibitors; format: cell-based, murine; conditions: inhibitor 0.1 mM, 37° C., 1 hour
Protocol: Conjugates were derived from MC56 to avoid a spectral interference with the fluorescent caspase substrate. The protein source was fetal bovine serum. Caspase inhibitors were used as recommended by the manufacturer (R&D Systems). That is, each sample contained 10^6 cells, and the final concentration of inhibitors was 0.1 mM. Incubation was at 37° C. for 1 hour. […] In FIG. 12, the “Z-” prefix and the “-FMK” suffix are omitted because of space limitations.
We have used the Oncogene (San Diego, Calif.) Caspase Detection Kit to monitor caspase activity in L1210 leukemia cells after exposure to cytotoxic Se(0)-protein conjugates. The kit uses a fluorescent substrate (FITC-VAD-FMK; a conjugate of fluoresceinisothiocyanate with a fluoromethylketone-derivaticed short peptide) that detects a broad range of caspases. When FITC-VAD-FMK is used in conjunction with non-cytotoxic concentrations of specific peptide inhibitors (R&D Systems, Minneapolis, Minn.), the inhibition of the fluorescent signal is directly proportional to the contribution of the respective caspases to the overall signal. […] Caspases 2, 4 and 9 show moderate activation whereas caspases 1, 3, 6 and 8 show little or no activity. […]

[8] = in vivo; cited from earlier work
female B6D2F1 mice = test: Acute systemic toxicity, intraperitoneal injection; format: in vivo; conditions: MC54 26 μM with equimolar bovine serum albumin; 1-ml i.p. injection on 1 to 5 consecutive days
Protocol: Acute Systemic Toxicity of Photoproduct-Protein Conjugates in Mice: In an initial acute toxicity study, groups of 5 female B6D2F1 mice were injected intraperitoneally with photoproduct-protein conjugates. The photoproduct-protein conjugates were generated by photobleaching the selenomerocyanine MC54 (26 μM) in the presence of an equimolar concentration of bovine serum albumin. Group 1 received one 1-ml intraperitoneal injection of this conjugate. Groups 2 through 5 received the same injection of conjugates on 2, 3, 4, or 5 consecutive days, respectively.
The second toxicity experiment used conjugates that had been prepared with a dye-to-protein ratio of 5:1. Since MC54 was added from stock solutions in ethanol, the mice of the second series were exposed to 5-fold higher doses of ethanol.

O=P1(N(CCCl)CCCl)NC(OO)CCO1 (stereo not shown) [Dye 4-HC, 4-Hydroperoxycyclophosphamide]
Surviving Fraction [1]: 0.0088 ± 0.0025 | Surviving Fraction [2]: 0.0460 ± 0.0043 | Surviving Fraction [3]: 0.2636 ± 0.0074

CCO [Ethanol]
Cytotoxic Activity (L1210 leukemia cells; MC54-derived photoproducts with the given solvent/protein): no

CCCCN1C(=O)C(=C/C=C/C=C2\Oc3ccccc3N2CCCS(=O)(=O)[O-])C(=O)N(CCCC)C1=S.[Na+] [MC540]
Cytotoxic Activity (L1210 leukemia cells): no

NCCCNCCSP(=O)(O)O [amifostine]
Effect of pretreatment on response to cytotoxic conjugates (tumor cells): sensitized tumor cells to cytotoxic conjugates

CCCCS(=N)(=O)CCC(N)C(=O)O (stereo not shown) [buthionine sulfoximine]
Effect of pretreatment on response to conjugates ([4]; 0.5 mM, 20 hours): little or no effect | Effect of pretreatment on response to conjugates ([5]; 0.5 mM, 20 hours): improved the response | Effect of pretreatment on response to conjugates [6]: little or no effect

N.N.[Cl][Pt][Cl] [cisplatin]
Antitumor effect, sequential exposure with conjugates ([4]; sequential exposure): additive | Antitumor effect, sequential exposure with conjugates ([5]; sequential exposure): additive

Bovine serum albumin: carrier protein for conjugates with MC54-derived photoproducts
Cytotoxic Activity (L1210 leukemia cells): yes

Carboxymethylated bovine serum albumin: commercial product from Sigma Chemical Co.
Cytotoxic Activity (L1210 leukemia cells): no

Cbz-Val-Ala-Asp-CH2F
Inhibition of the fluorescent caspase signal [7]: reduced the fluorescence signal more than any of the specific inhibitors

Fetal bovine serum
Cytotoxic Activity (L1210 leukemia cells): yes

albumin
half-life [8]: approximately 19 days | Cytotoxicity of conjugates by carrier (lipo)protein (L1210 leukemia cells): more cytotoxic than conjugates formed by HDL

photoproduct-protein conjugates: generated by photobleaching the selenomerocyanine MC54 (26 μM) in the presence of an equimolar concentration of bovine serum albumin
Signs of toxicity (female B6D2F1 mice): None of the animals showed signs of acute or chronic toxicity | Survival (female B6D2F1 mice): All animals survived

— US7205002B2, “Method of making, and the use of cytotoxic agents containing elemental selenium” (MCW Research Foundation, Inc., priority 2002, dated 2007)
